How the values were obtained:
[1] = parameters: species or system Sprague-Dawley rats; details: rat, in vivo
Protocol: The devices prepared in Example 2 were evaluated in ovariectomized Sprague-Dawley rats. The rats were ovariectomized 2 weeks prior to testing. On the test day the animals were anesthetized with ether and administered with either 10 ug of 17 B-estradiol in sesame oil [0.2 ml by subcutaneous (S.C.) or ingestion (I.G.) routes] or a soluble device containing an equal amount of estradiol placed buccally. Animals were kept anesthetized for approximately 10 minutes after estradiol administration. Trunk blood was collected at various times thereafter.

diestrus rat = assay: In-vivo delivery study of histrelin buccal device: induction of ovulation in the diestrus rat; details: for ED50 dose (inducing ovulation): buccal tablet
Protocol: The study was designed to measure the ability of the histrelin delivered by the soluble buccal devices of the invention to induce ovulation in the diestrus rat. Devices were prepared by punching 7 mm tablets from the tray containing the lyophilized foam. Each tablet theoretically contained 297 ug of histrelin. Whole, halved and quartered tablets were then placed in the buccal cavity of diestrus rats anesthetized with ether. After 10 minutes the device was absorbed. The following day the rats were sacrificed and the oviducts removed and examined for the presence of ova.

[2] = half buccal tablet, histrelin 150 ug
[3] = quarter buccal tablet, histrelin 75 ug
[4] = whole buccal tablet, histrelin 300 ug

| time after which the device was absorbed (diestrus rat; buccal cavity of anesthetized diestrus rats) [min] | SMILES | bioavailability of estradiol administered buccally [1] | ED50 dose (inducing ovulation) (diestrus rat; per body weight) [mg/kg] | ED50 dose (inducing ovulation) (diestrus rat; per rat) | inducing ovulation (result in words) (diestrus rat; buccal tablets) | # of Rats Ovulating/Total # of Rats (diestrus rat; [2]) | Ova/Rat (diestrus rat; [2]) | # of Rats Ovulating/Total # of Rats (diestrus rat; [3]) | Ova/Rat (diestrus rat; [3]) | # of Rats Ovulating/Total # of Rats (diestrus rat; [4]) | Ova/Rat (diestrus rat; [4]) |
| --- | --- | --- | --- | --- | --- | --- | --- | --- | --- | --- | --- |
| – | C[C@]12CC[C@@H]3c4ccc(O)cc4CC[C@H]3[C@@H]1CC[C@@H]2O [Estradiol, 17 B-estradiol] | greater than oral administration but less than administered by injection | – | – | – | – | – | – | – | – | – |
| 10 | CCNC(=O)[C@@H]1CCCN1C(=O)[C@H](CCCNC(=N)N)NC(=O)[C@H](CC(C)C)NC(=O)[C@@H](Cc1cn(Cc2ccccc2)cn1)NC(=O)[C@H](Cc1ccc(O)cc1)NC(=O)[C@H](CO)NC(=O)[C@H](Cc1c[nH]c2ccccc12)NC(=O)[C@H](Cc1cnc[nH]1)NC(=O)[C@@H]1CCC(=O)N1 [Histrelin] | – | ~0.3 | approximately 75 ug/rat | effective in inducing ovulation in a dose-dependent manner | 4/5 | 8 | 4/6 | 6 | 6/6 | 13 |

— patent US5891458A, “Bioerodible device for administering active ingredients” (priority 1997, dated 1999)
